Measurements from patent US20020169175A1, “Pharmaceutically acceptable salts of heterocyclic compounds” (DR. REDDY'S LABORATORIES LTD., priority 2001, published 2002).
Structures can show the parent of a compound that is named as a salt.

Key:
Swiss albino mice = experiment: Plasma triglyceride and total cholesterol lowering activity in Swiss albino mice and Guinea pigs; assay type: in vivo, mouse; details: dose 0.3 mg/kg, oral, 6 days
Method: c) Plasma Triglyceride and Total Cholesterol Lowering Activity in Swiss Albino Mice and Guinea Pigs
Male Swiss albino mice (SAM) and male Guinea pigs were obtained from NIN and housed in DRF animal house. All these animals were maintained under 12 hour light and dark cycle at 25±1° C. Animals were given standard laboratory chow (NIN Hyderabad, India) and water, ad libitum. SAM of 20-25 g body weight range and Guinea pigs of 500-700 g body weight range were used (Oliver, P., Plancke, M. O., Marzin, D., Clavey, V., Sauzieres, J and Fruchart, J. C. Effects of fenofibrate, gemfibrozil and nicotinic acid on plasma lipoprotein levels in normal and hyperlipidemic mice. Atherosclerosis. 1988. 70: 107-114).
The test compounds were administered orally to Swiss albino mice at 0.3 to 30 mg/kg/day dose for 6 days. Control mice were treated with vehicle (0.25% Carboxymethylcellulose; dose 10 ml/kg). The test compounds were administered orally to Guinea pigs at 0.3 to 30 mg/kg/day dose for 6 days. Control animals were treated with vehicle (0.25% Carboxymethylcellulose; dose 5 ml/kg).
The blood samples were collected in fed state 1 hour after drug administration on 0 and 6 day of treatment. The blood was collected from the retro-orbital sinus through heparinised capillary in EDTA containing tubes. After centrifugation, plasma sample was separated for triglyceride and total cholesterol (Wieland, O. Methods of Enzymatic analysis. Bergermeyer, H. O., Ed., 1963. 211-214; Trinder, P. Ann. Clin. Biochem. 1969. 6: 24-27). Measurement of plasma triglyceride, total cholesterol and HDL were done using commercial kits (Dr. Reddy's Diagnostic Division, Hyderabad, India).
(§1) 1. Percent reduction in Blood sugar/triglycerides/total cholesterol were calculated according to the formula: [formula]

hPPARα = molecular target: T1, hPPARα (Homo sapiens, UniProt Q07869); experiment: Determination of hPPARα activity (GAL4 fusion luciferase reporter in transfected HEK-293 cells); assay type: cell-based; details: compound concentration 50 μM
T1 construct: expressed in transfected cells; host or cells: HEK-293
T1 sequence (Q07869 239-466 limits assumed): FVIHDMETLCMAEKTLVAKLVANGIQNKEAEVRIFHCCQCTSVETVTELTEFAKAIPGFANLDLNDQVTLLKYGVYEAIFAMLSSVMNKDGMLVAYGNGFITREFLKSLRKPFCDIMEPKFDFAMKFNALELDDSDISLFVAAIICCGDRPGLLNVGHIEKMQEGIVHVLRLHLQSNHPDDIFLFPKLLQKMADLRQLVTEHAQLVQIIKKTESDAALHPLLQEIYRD
Method: a) Determination of hPPARα Activity
Ligand binding domain of hPPARα was fused to DNA binding domain of Yeast transcription factor GAL4 in eucaryotic expression vector. Using superfect (Qiagen, Germany) as transfecting reagent HEK-293 cells were transfected with this plasmid and a reporter plasmid harboring the luciferase gene driven by a GAL4 specific promoter. Compound was added at different concentrations after 42 hrs of transfection and incubated overnight. Luciferase activity as a function of compound binding/activation capacity of PPARα was measured using Packard Luclite kit (Packard, USA) in Top Count (Ivan Sadowski, Brendan Bell, Peter Broag and Melvyn Hollis. Gene. 1992. 118: 137-141; Superfect Transfection Reagent Handbook. February 1997. Qiagen, Germany).

C57BL/KsJ-db/db mice = experiment: Efficacy in genetic models: blood sugar lowering in db/db mice; assay type: in vivo, mouse; details: 0.1 mg/kg oral gavage daily for 6 days
From the text: a) Efficacy in Genetic Models
Mutation in colonies of laboratory animals and different sensitivities to dietary regimens have made the development of animal models with non-insulin dependent diabetes and hyperlipidemia associated with obesity and insulin resistance possible. Genetic models such as db/db and ob/ob (Diabetes, (1982) 31(1): 1-6) mice and zucker fa/fa rats have been developed by the various laboratories for understanding the pathophysiology of disease and testing the efficacy of new antidiabetic compounds (Diabetes, (1983) 32: 830-838; Annu. Rep. Sankyo Res. Lab. (1994). 46: 1-57). […]
The random blood sugar and triglyceride levels were measured by collecting blood (100 μl) through orbital sinus, using heparinised capillary in tubes containing EDTA which was centrifuged to obtain plasma. The plasma glucose and triglyceride levels were measured spectrometrically, by glucose oxidase and glycerol-3-PO4 oxidase/peroxidase enzyme (Dr. Reddy's Lab. Diagnostic Division Kits, Hyderabad, India) methods respectively.
The blood sugar and triglycerides lowering activities of the test compound was calculated according to the formula.
as §1

hPPARγ1 = molecular target: T2, hPPARγ1 (Homo sapiens, UniProt P37231); experiment: Determination of hPPARγ activity (GAL4 fusion luciferase reporter in transfected HEK-293 cells); assay type: cell-based; details: compound concentration 1 μM
T2 construct: expressed in transfected cells; host or cells: HEK-293
T2 sequence (P37231 238-503 limits assumed): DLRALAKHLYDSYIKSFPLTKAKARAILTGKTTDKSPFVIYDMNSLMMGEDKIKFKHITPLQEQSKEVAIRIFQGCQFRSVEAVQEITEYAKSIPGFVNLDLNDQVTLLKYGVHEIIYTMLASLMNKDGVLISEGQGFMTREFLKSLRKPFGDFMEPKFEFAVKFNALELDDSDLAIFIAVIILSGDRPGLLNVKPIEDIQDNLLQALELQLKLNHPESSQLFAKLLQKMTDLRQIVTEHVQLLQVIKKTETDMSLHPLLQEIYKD
Method: b) Determination of hPPARγ Activity
Ligand binding domain of hPPARγ1 was fused to DNA binding domain of Yeast transcription factor GAL4 in eucaryotic expression vector. Using lipofectamine (Gibco BRL, USA) as transfecting reagent HEK-293 cells were transfected with this plasmid and a reporter plasmid harboring the luciferase gene driven by a GAL4 specific promoter. Compound was added at 1 μM concentration after 48 hrs of transfection and incubated overnight. Luciferase activity as a function of drug binding/activation capacity of PPARγ1 was measured using Packard Luclite kit (Packard, USA) in Packard Top Count (Ivan Sadowski, Brendan Bell, Peter Broag and Melvyn Hollis. Gene. 1992. 118: 137-141; Guide to Eukaryotic Transfections with Cationic Lipid Reagents. Life Technologies, GIBCO BRL, USA).

Structure (SMILES): CCO[C@@H](Cc1ccc(OCCn2c(CC)nc3ccccc3c2=O)cc1)C(=O)O [Example 11, (−)-3-[4-[2-(2-Ethyl-4-oxo-3,4-dihydroquinazolin-3-yl)ethoxy]phenyl]-2-ethoxypropanoic acid arginine salt]
- Triglyceride Lowering (%) (Swiss albino mice): 58%
- PPARα (hPPARα): 13.8
- Reduction in Blood Glucose Level (%) (C57BL/KsJ-db/db mice): 61%
- PPARγ (hPPARγ1): 27.0
